Laboratory results: patent US11185557B2, “Use of rhamnose and derivatives thereof as antifungal agents” (ISDIN, S.A., priority 2017, dated 2021)

System: Malassezia furfur
Test: Ex-vivo antifungal activity assay on inoculated human skin explants, product applied 24 hours after inoculation, CFU quantification
Assay type: cell-based
Settings: topical 2 mg/cm^2 applied 24 hours post inoculation, versus inoculum (C1) and untreated control explants (C2), FIG. 2
Procedure: Human organotypic skin cultures were obtained from abdominal skin removed during aesthetic surgery. These skin explants were altered by partial elimination of stratum corneum to facilitate the colonization and MF suspension was placed on the skin surface and incubated for 24 hours under conditions that are optimal for MF growth. 24 hours post initial MF inoculation, NSFC was topically applied on skin explants (2 mg/cm^2) and spread evenly. On control skin explants, inoculated in the same way, no product was applied (C2). A sham control group was treated with a neutral cream without known antifungal properties, petroleum jelly (P3). Growth of MF was monitored by quantifying MF Colony Forming Units (CFUs) in a sample removed from skin surface. The quantification of CFUs was carried out by recovering fungal microorganisms from skin explants and subsequent plating them following the serial dilution method to determine the number of CFUs.
The antifungal activity was evaluated for Ketoconazole 2% (P1), the composition of example 1 (P2), and petroleum jelly (Vaseline) (P3) with respect to the inoculum concentration (C1) and control skin explants (C2).

## CC(=O)N1CCN(c2ccc(OCC3COC(Cn4ccnc4)(c4ccc(Cl)cc4Cl)O3)cc2)CC1 (stereo not shown) [Ketoconazol 2%, ketoconazole]
  growth of M. furfur on the skin explants (CFUs): reduced the growth of the fungus
